One may read the Kd as the concentration at which binding is half-saturated. In general, Ki refers to the equilibrium dissociation constant of an inhibitor or competing ligand from its target. For orientation: IC50 means the point on the concentration scale where inhibition reaches its midpoint.

“Also recorded” adds a separate entry of the source.

This is an account of results in article PMC11080064, “Inositol Hexaphosphate as an Inhibitor and Potential Regulator of p47^phox Membrane Anchoring” (Biochemistry, 2024).

Assay [1] has as its target T1, p47phox-PX (PX domain of p47phox, residues 1-128) (Homo sapiens, UniProt P14598).
T1 construct: poly histidine tag (TEV cleavable) (cleaved yes); made in house; host or cells: E. coli BL21 (DE3)
T1 sequence (P14598 1-128): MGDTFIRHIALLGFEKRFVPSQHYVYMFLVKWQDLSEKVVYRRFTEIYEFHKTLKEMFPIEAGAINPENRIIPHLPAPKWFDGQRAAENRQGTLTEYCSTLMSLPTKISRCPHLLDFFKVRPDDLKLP
In words: 1H-15N-HSQC NMR titration (chemical shift perturbation) of inositol phosphates. The class given is binding. The note with it: for Kd / binding observed by NMR (CSPs): 100 μM p47phox-PX; for Kd: pH 6.0, 25 °C, read-out: Kd (binding affinity, global fit of CSPs); for binding observed by NMR (CSPs): up to 64 mM. The method, then: All NMR samples were prepared with either ^15N- or ^15N–^13C-p47^phox-PX in 50 mM Bis-Tris (pH 6.0), 100 mM NaCl, 1 mM DTT, 0.02% (v/v) sodium azide and 10% D2O as a lock solvent. Protein concentration was typically 100 μM in each sample, as confirmed by the Bradford Assay. NMR experiments were collected on a 600 MHz Bruker AVANCE III equipped with a TXI triple resonance probe at 25 °C. NMR assignments of the PX domain were transferred from a previous publication,[24] then were confirmed, and expanded by collection of 3D HNCA, HN(CA)CB, and CBCA(CO)NH experiments on a 700 MHz Bruker AVANCE III at 25 °C.[41]−[43] Standard Bruker pulse sequences were used with the HNCA collected with 64 scans and 1024 × 40 × 48 total points, the HN(CA)CB collected with 64 scans and 1024 × 40 × 64 total points, and the CBCA(CO)NH collected with 32 scans and 1024 × 40 × 96 total points. NMR data was processed with NMRPipe[44] and analyzed using NMRFAM-Sparky.[45]
For NMR titrations, inositol phosphate stocks were prepared in the same NMR buffer, the IP6 stock was pH adjusted, and added in 0.25, 0.5, 2, and 4 to 1 mol equiv to the PX domain of p47^phox. Due to the high buffering capacity of IPs, pH values were checked during titrations and corrected as needed. ^1H–^15N-HSQC spectra were collected at each titration point, using a standard Bruker pulse sequence, collected with 2048 × 100 total points and 16 or 32 scans. Chemical shift perturbations (CSPs) were calculated using weighted chemical shifts in the following formula[46]: [drawing 1] where Δ^1H and Δ^15N represent the changes in the ^1H and ^15N chemical shifts for each resonance. To calculate the binding affinity of IPs to the PX domain of p47^phox, residues with ≥0.08 CSP at the highest titration point were fit to the following formula, which accounts for ligand depletion, on GraphPad Prism 10: [drawing 2] where CSP denotes the CSP of the individual residue at each IP concentration ([L]), Dmax represents the CSP at saturation, [P] represents the concentration of p47^phox-PX, and Kd represents the dissociation constant of p47^phox-PX and IP. The formula was initially fit to each residue individually and any residue with R^2 < 0.95 was removed before fitting the data globally to determine the overall binding affinity.

Assay [2] addresses T2, p47phox-PX (Homo sapiens, UniProt P14598).
T2 construct: poly histidine tag (TEV cleavable) (cleaved yes); made in house; host or cells: E. coli BL21 (DE3)
T2 sequence (P14598 1-128): T1 sequence (P14598 1-128)
Put plainly: Fluorescence polarization competition against BODIPY-PI(3,4)P2 tracer. The class given is binding. The method, then:
All fluorescence polarization (FP) experiments were performed using BODIPY-FL diC6–PI(3,4)P2 [Echelon Biosciences (Salt Lake City, UT)] as the reporting tracer. […] Each sample contained 50 nM BODIPY-PI(3,4)P2 and was plated in triplicate on a black half area 96-well microplate [Corning (Corning, NY)]. The plate was centrifuged at 500 rpm for 30 s prior to analysis on a SpectraMax M5 [Molecular Devices (San Jose, CA)]. Measurements were taken using a monochromator with fixed excitation and emission wavelengths of 485 and 525 nm, respectively, and a cutoff of 515 nm. Raw data was converted to millipolarization (mP) using the SoftMax Pro software [Molecular Devices (San Jose, CA)]. mP values were then converted to anisotropy (A) using the following formula: [drawing 3]
A 2-fold dilution series of IP was performed, ranging from 50–0.05 μM IP in the presence of 2.5 μM p47^phox-PX and 50 nM BODIPY-PI(3,4)P2. Samples were plated in triplicate on a black half area microplate, centrifuged at 500 rpm for 30 s, and incubated for 1 h prior to analysis. The data was converted to anisotropy and fit to a four-parameter, variable slope, dose–response equation on GraphPad Prism 10. The IC50 from the dose–response equation was converted to an inhibitory constant (Ki) using a IC50-to-Ki calculator, which incorporated the following formula[47]: [drawing 5] where I50 and L50 are the free concentrations of IP and BODIPY-PI(3,4)P2, respectively, at 50% inhibition, and P0 is the free concentration of p47^phox-PX in the absence of IP.
Background: Polarisation of emitted light reports the rotation of a fluorescent probe.

The target of assay [3] is T3, p47phox-PX binding to PI(3,4)P2-containing liposomes (Homo sapiens, UniProt P14598).
T3 construct: poly histidine tag (TEV cleavable) (cleaved yes); made in house; host or cells: E. coli BL21 (DE3)
T3 sequence (P14598 1-128): T1 sequence (P14598 1-128)
In words: Dansyl-PE liposome FRET assay of membrane anchoring. The class given is biochemical. The note with it: 2.5 μM p47phox-PX, 125 μM accessible lipid, 79:15:1:5 POPC:POPE:diC16-PI(3,4)P2:Dansyl-PE, pH 7.0, 1 mM MgCl2; read-out: apparent IC50 of inhibition of membrane anchoring. The method, then:
To ensure proper liposome formation, phosphatidylinositol stocks were protonated prior to use adapted from a previously published protocol.[28] In brief, lyophilized PI(3,4)P2 lipids were resuspended in CHCl3 and dried under nitrogen. Lipids were then further dried under a speed vacuum for 1 h followed by a resuspension into 2:1:0.01 CHCl3: MeOH: 1 M HCl. The suspension was allowed to sit at room temperature for 15 min before the drying process was repeated. Lipids were then reconstituted in 3:1 CHCl3: MeOH and dried as above. The process was repeated with CHCl3 before a final resuspension into CHCl3 at the desired concentration and storage of protonated stocks at −80 °C. […]
The FRET assay was performed based on a previously published protocol,[48] where intrinsic tryptophan fluorescence within the PX domain was utilized as the donor fluorophore and Dansyl-PE incorporated within liposomes as the acceptor fluorophore. […] Samples were mixed for 40 s after each IP6 addition and were analyzed on an OLIS 14 TB NIR/CD Spectrophotometer [Olis (Bogart, GA)] equipped with a UV/vis photon counter 230–870 nm fluorescence detector. […] Each titration point measurement was integrated over 10 s and measured in triplicate. […]

The target in assay [4] is T2, p47phox-PX. In words: Fluorescence polarization direct binding of BODIPY-PI(3,4)P2 tracer. The note with it: 50 nM tracer, 10-0.02 μM protein, pH 7.0, 1 mM MgCl2. The method, then: All fluorescence polarization (FP) experiments were performed using BODIPY-FL diC6–PI(3,4)P2 [Echelon Biosciences (Salt Lake City, UT)] as the reporting tracer. To determine the binding affinity of the fluorophore to p47^phox-PX, a series of 2-fold dilutions, ranging from 10–0.02 μM protein, were performed in 50 mM Bis-Tris (pH 7.0), 100 mM NaCl, 1 mM MgCl2, and 1 mM DTT. Each sample contained 50 nM BODIPY-PI(3,4)P2 and was plated in triplicate on a black half area 96-well microplate [Corning (Corning, NY)]. The plate was centrifuged at 500 rpm for 30 s prior to analysis on a SpectraMax M5 [Molecular Devices (San Jose, CA)]. Measurements were taken using a monochromator with fixed excitation and emission wavelengths of 485 and 525 nm, respectively, and a cutoff of 515 nm. Raw data was converted to millipolarization (mP) using the SoftMax Pro software [Molecular Devices (San Jose, CA)]. mP values were then converted to anisotropy (A) using the following formula: [drawing 3] […]

On to `O=P(O)(O)O[C@H]1[C@H](O)[C@@H](OP(=O)(O)O)[C@H](OP(=O)(O)O)[C@@H](OP(=O)(O)O)[C@H]1O` [IP4, inositol (1,3,4,5) tetrakisphosphate], for which, in assay [1] (NMR titration), the Kd came to 100 ± 11 µM.

In the case of `O=P(O)(O)O[C@@H]1[C@@H](OP(=O)(O)O)[C@H](OP(=O)(O)O)[C@H](O)[C@H](OP(=O)(O)O)[C@H]1OP(=O)(O)O` [IP5, inositol (1,3,4,5,6) pentakisphosphate], the Kd in assay [1] (NMR titration) amounted to 58 ± 6 µM. In addition, the “competition with BODIPY-PI(3,4)P2 binding” value at p47phox-PX [2] (up to 50 μM, 2.5 μM p47phox-PX, 50 nM tracer) is “no apparent capacity to inhibit; also recorded: no significant observed competition”.

Regarding `O[C@H]1[C@H](O)[C@@H](O)[C@H](O)[C@@H](O)[C@H]1O` [Inositol], the results for the “binding observed by NMR (CSPs)” value in assay [1] and in assay [1] (listed as inositol) were “no significant CSPs were observed” and “no significant binding”, respectively.

Turning to `O=P(O)(O)OC1[C@H](O)[C@H](O)C(O)[C@H](O)[C@H]1O` (stereo partly shown) [inositol-1-phosphate], the Kd in assay [1] (NMR titration) amounted to 870 ± 120 µM.

For the compound `O=P(O)(O)O[C@H]1[C@H](OP(=O)(O)O)[C@@H](OP(=O)(O)O)[C@H](OP(=O)(O)O)[C@@H](OP(=O)(O)O)[C@H]1OP(=O)(O)O` [IP6, inositol hexaphosphate], the “approximate affinity inferred from intermediate-exchange line-broadening” value in assay [1] (NMR titration, line-broadening precluded Kd fit) was “low-μM or lower affinity”. Further, on p47phox-PX [2] (2.5 μM p47phox-PX, 50 nM BODIPY-PI(3,4)P2, pH 7.0, 1 mM MgCl2, read-out: Ki (inhibition constant, converted from IC50)), the Ki amounted to 0.6 ± 0.2 µM. For the same compound, at p47phox-PX [2] (pH 6 with 1 mM MgCl2, compared to pH 7.0), the “effect of lower pH on inhibition / Ki” value was “no significant change in Ki; also recorded: only a minor effect”. In addition, the “effect of absence of MgCl2 on inhibition / Ki” value at p47phox-PX [2] (pH 6 with no MgCl2) was “no significant change in Ki; also recorded: little to no effect”. For the same compound, in assay [3], the IC50 was 1.3 ± 0.3 µM.

`O=P(O)(O)O[C@H]1[C@H](O)[C@@H](O)[C@H](OP(=O)(O)O)[C@@H](OP(=O)(O)O)[C@H]1O` [IP3, inositol (1,3,4) trisphosphate]: the Kd in assay [1] (NMR titration) is 200 ± 50 µM.

For the compound “BODIPY-FL diC6–PI(3,4)P2 [BODIPY-PI(3,4)P2]”, binding at p47phox-PX [4] was characterised by a dissociation constant (Kd) of 0.35 ± 0.05 µM.
